Measurements reported in patent US5047512A, “Immobilized cyclophilin and methods of using such” (priority 1987, dated 1991).
Several values for one entry are separate records, joined by “and”; a condition that tells them apart may be missing. Equal entries are not always repeated. Where a SMILES comes first, the peptide text is derived from it. [ ]: non-standard residue; d: D form. NMe(dihydroBmt) = CCCC[C@@H](C)[C@@H](O)[C@H](NC)C(=O)O; NMeL = CN[C@@H](CC(C)C)C(=O)O; NMeV = CN[C@H](C(=O)O)C(C)C; Sar = CNCC(=O)O

Columns and labels:
[1] = target: T1, cyclophilin (Bos taurus, UniProt P62935); test: Cyclophilin affinity: enhancement of the intrinsic tryptophan fluorescence of cyclophilin by CsA or analogs; format: binding; conditions: 5 ug/ml cyclophilin, pH 7.2; for Cyclophilin affinity 0.25 ug/ml: ligand 0.25 ug/ml; for Cyclophilin affinity 1.0 ug/ml: ligand 1.0 ug/ml
T1 construct: from tissue; host or cells: purified from tissue cytosol

[2] = Retention of analog relative to CsA on a uBondapak phenyl column as a measure of hydrophobicity; format: physicochemical; conditions: isocratic 60% acetonitrile, 1 ml/min
[3] = Isoelectric point of cyclophilin; format: physicochemical
Description: The column was harvested at a flow rate of 1 ml/min. and the pH of each fraction was measured prior to titration with 1M potassium dihydrogen phosphate to pH 7.0.

[4] = CsA binding activity (3H-CsA binding, Sephadex LH-20 columns); conditions: for CsA binding specific activity: purified bovine isoforms, weak cation exchange HPLC; for CsA bound per mole of cyclophilin species: stoichiometry, major and minor isoforms
Description: A typical procedure for the purification of cyclophilin will next be described. […] After addition of 10 ul ^3 H-CsA (50 ug/ml; 0.05 uCi/ml in 40% ethanol), tubes were agitated gently and 50 ul was applied to 1.8 ml Sephadex LH-20 (hydroxypropylated […]) columns pre-equilibrated with assay buffer. The samples were then washed into the columns with 500 ul of assay buffer followed by an additional 500 ul to elute cyclophilin-CsA complexes. Elution fractions were diluted in 5.6 ml Liquiscint (a fluor-containing liquid to permit β-scintillation counting of ^3 H) and the binding activity quantified as equal to (cpm - background).div.(quench correction×^3 H-CsA specific activity)×(volume of test sample).
The isoforms of bovine cyclophilin were separated by weak cation exchange high pressure liquid chromatography. […] Samples were injected onto a weak cation exchange HPLC column (Synchropak CM300:[…]; pore size 300 Å) pre-equilibrated with 5 mM potassium phosphate, 5 mM 2-ME, pH 7.2. The isoforms were eluted at 1 ml/min with a concave gradient (5 mM potassium phosphate, pH 7.2 to 175 mM NaCl, 5 mM potassium phosphate, pH 7.2) generated with a gradient programmer. Milligram quantities of the bovine cyclophilin isoforms were obtained by automating injection, gradient elution and collection. […] The disassociation constant is about 2×10^-7 M.

[5] = Stability of CsA binding activity of cyclophilin; format: physicochemical
From the text: Similarly, it can be used to purify the ligand from a composition containing ligand. For example, the cyclophilin can be used for purifying CsA or related structures from a yeast fermentation broth in which the CsA is produced. Further, it can be used to select compounds which bind to cyclophilin as a screening test for identifying new immunosuppressant drugs. In these various procedures, it is preferred, although not required, to immobilize the cyclophilin. This can be accomplished by any procedure known in the art. A particularly useful immobilizing matrix is agarose having carboxy terminated C12 spacer arm esterfied to N-hydroxysuccinimide. This matrix is commercially available under the name Affigel-10 (Biorad). The immobilized cyclophilin is prepared by effecting a transamination with the N-hydroxysuccinimide being split off and the cyclophilin replacing it. The binding of the cyclophilin to this matrix can result in a marked stabilization of the bound activity through a three-dimensional stabilization achieved by multiple bonds through the ε-amino groups of lysine.

T1 sequence (P62935 whole entry): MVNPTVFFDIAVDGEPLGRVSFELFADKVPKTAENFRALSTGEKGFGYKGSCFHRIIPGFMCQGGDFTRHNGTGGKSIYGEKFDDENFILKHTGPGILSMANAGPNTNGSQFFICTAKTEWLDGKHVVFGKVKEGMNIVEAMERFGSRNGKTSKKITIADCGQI

Cyclophilin affinity 0.25 ug/ml [1]	Cyclophilin affinity 1.0 ug/ml [1]	Retention time of analog relative to CsA [2]	Compound	further results
0.31	0.69	0.70	C/C=C/C[C@@H](C)[C@@H](O)[C@H]1C(=O)N[C@@H]([C@@H](C)O)C(=O)N(C)CC(=O)N(C)[C@@H](CC(C)C)C(=O)N[C@@H](C(C)C)C(=O)N(C)[C@@H](CC(C)C)C(=O)N[C@@H](C)C(=O)N[C@H](C)C(=O)N(C)[C@@H](CC(C)C)C(=O)N(C)[C@@H](CC(C)C)C(=O)N(C)[C@@H](C(C)C)C(=O)N1C [CsC, cyclosporin C]	–
0.33	0.70	0.79	CCCC[C@@H](C)[C@@H](O)[C@H]1C(=O)N[C@@H]([C@@H](C)O)C(=O)N(C)CC(=O)N(C)[C@@H](CC(C)C)C(=O)N[C@@H](C(C)C)C(=O)N(C)[C@@H](CC(C)C)C(=O)N[C@@H](C)C(=O)N[C@H](C)C(=O)N(C)[C@@H](CC(C)C)C(=O)N(C)[C@@H](CC(C)C)C(=O)N(C)[C@@H](C(C)C)C(=O)N1C [Dihydro-CsC] (cyclo(A[dA][NMeL][NMeL][NMeV][NMe(dihydroBmt)]T[Sar][NMeL]V[NMeL]))	–
–	–	–	Human cyclophilin: N-terminal sequence (72 residues) of bovine and human cyclophilin is completely identical	isoelectric point [3]: 7.4 and 9.1
0.21	0.69	1.20	C/C=C/C[C@@H](C)[C@@H](O)[C@H]1C(=O)N[C@@H](C(C)C)C(=O)N(C)CC(=O)N(C)[C@@H](CC(C)C)C(=O)N[C@@H](C(C)C)C(=O)N(C)[C@@H](CC(C)C)C(=O)N[C@@H](C)C(=O)N[C@H](C)C(=O)N(C)[C@@H](CC(C)C)C(=O)N(C)[C@@H](CC(C)C)C(=O)N(C)[C@@H](C(C)C)C(=O)N1C [CsD]	–
–	–	–	minor isoform of cyclophilin: minor isoform of bovine cyclophilin separated by weak cation exchange HPLC	CsA binding specific activity [4]: 67 ug per mg of protein; CsA bound per mole of cyclophilin species [4]: about one
–	–	–	cyclophilin: homogeneous cytosolic binding protein which has a molecular weight of approximately 17,600 daltons	CsA binding specific activity of purified cyclophilin ([4]; purified cyclophilin): above 50 ug per mg of protein; stability of CsA binding activity ([5]; temperature, pH, proteases, in words): unstable at 56 °C and at pH 4 or 9.5, and sensitive to proteases, i.e. trypsin; irreversible loss of CsA binding activity ([5]; unbound cyclophilin in solution with 8M urea, after dialysis): at least 60%; loss of CsA binding activity in 30% acetonitrile ([5]; unbound cyclophilin, 10 minute exposure to 30% acetonitrile): complete loss of activity
–	–	–	major isoform of cyclophilin: major isoform of bovine cyclophilin separated by weak cation exchange HPLC	CsA binding specific activity [4]: 77 ug per mg of protein; CsA bound per mole of cyclophilin species [4]: about one
0.19	0.72	1.28	CCCC[C@@H](C)[C@@H](O)[C@H]1C(=O)N[C@@H](C(C)C)C(=O)N(C)CC(=O)N(C)[C@@H](CC(C)C)C(=O)N[C@@H](C(C)C)C(=O)N(C)[C@@H](CC(C)C)C(=O)N[C@@H](C)C(=O)N[C@H](C)C(=O)N(C)[C@@H](CC(C)C)C(=O)N(C)[C@@H](CC(C)C)C(=O)N(C)[C@@H](C(C)C)C(=O)N1C [Dihydro-CsD] (cyclo(A[dA][NMeL][NMeL][NMeV][NMe(dihydroBmt)]V[Sar][NMeL]V[NMeL]))	–
–	–	–	Bovine cyclophilin: Bovine thymocyte cyclophilin contains 163 amino acid residues; sequence in FIG. 1	isoelectric point [3]: about 9.6
-0.02	-0.03	1.69	C/C=C/C[C@@H](C)[C@@H](OC(C)=O)[C@H]1C(=O)N[C@@H](CC)C(=O)N(C)CC(=O)N(C)[C@@H](CC(C)C)C(=O)N[C@@H](C(C)C)C(=O)N(C)[C@@H](CC(C)C)C(=O)N[C@@H](C)C(=O)N[C@H](C)C(=O)N(C)[C@@H](CC(C)C)C(=O)N(C)[C@@H](CC(C)C)C(=O)N(C)[C@@H](C(C)C)C(=O)N1C [O-Acetyl-CsA]	–

Compound	Cyclophilin affinity 0.25 ug/ml [1]	Cyclophilin affinity 1.0 ug/ml [1]	Retention time of analog relative to CsA [2]	further results
C/C=C/C[C@@H](C)[C@@H](O)[C@H]1C(=O)N[C@@H](CCC)C(=O)N(C)CC(=O)N(C)[C@@H](CC(C)C)C(=O)N[C@@H](C(C)C)C(=O)N(C)[C@@H](CC(C)C)C(=O)N[C@@H](C)C(=O)N[C@H](C)C(=O)N(C)[C@@H](CC(C)C)C(=O)N(C)[C@@H](CC(C)C)C(=O)N(C)[C@@H](C(C)C)C(=O)N1C [CsG]	0.30	0.87	1.14	–
